According to patent US5873359A, “Methods and devices for treating pulmonary vasoconstriction and asthma” (The General Hospital Corporation, priority 1994, dated 1999):
Like-named read-outs stand apart in the source and are kept apart here.

Columns and labels:
[1] = tested on: severe acute respiratory failure; assay: Inhaled NO in humans with severe acute respiratory failure (preliminary); assay type: in vivo, human; conditions: approximately 20 ppm inhaled, up to one month, five humans
Text: It is likely that inhaled NO acts by diffusing into the vascular space adjacent to the alveoli and causing relaxation of pulmonary vascular smooth muscle, thus permitting an increase in pulmonary blood flow and gas exchange. […] By localizing delivery of NO in a gaseous form directly to the lungs, the dissolved NO can immediately exert its pharmacological effect on target vascular smooth muscle, prior to inactivation of the NO by binding to hemoglobin. At the same time, the rapid binding of NO to hemoglobin ensures that any vasodilatory action of inhaled NO is solely a local or selective effect in the blood vessels of the lung, with no concomitant vasodilation downstream in the systemic circulation.

[2] = tested on: acute hypoxic pulmonary hypertension; assay: Inhaled NO in lambs with pulmonary vasoconstriction induced by hypoxia; assay type: in vivo
Method: Five awake lambs were studied during a period of breathing a hypoxic gas mixture to induce acute hypoxic pulmonary hypertension. Three lambs were excluded due to sepsis and heart failure. Hemodynamic monitoring techniques similar to those described above were used. We employed a non-rebreathing circuit containing a 25 liter reservoir bag and the Fi O2 was reduced to 0.06-0.08 to produce a mean PAP near 25 mm Hg at a Pa O2 near 30 mm Hg. Either 40 or 80 ppm NO was then added to the inspired gas mixture. Total gas flows were maintained at 35 l/min to prevent rebreathing due to hyperventilation. The inspired Fi O2 was monitored with n electrode (model 5590, Hudson Co., Temecala, Calif.) and pure CO2 was added to the inspired gas to maintain the end tidal CO2 concentration at 4.5-6%. Measurements of central hemodynamics and gas exchange were obtained at baseline, during hypoxia, and at 3 and 6 minutes of No breathing during hypoxia. Comparisons were performed using paired t-tests.

[3] = tested on: persistent pulmonary hypertension of the newborn (PPHN); assay type: in vivo, human
Method: First subject. Through compassionate use, nitric oxide was administered to an infant suffering from persistent pulmonary hypertension and congenital heart disease. As a result of prolonged ventilation, absence of a preductal arterial blood sampling site, and the existence of the atrial-ventricular (AV) canal, the patient was not included in the PPHN study mentioned above.
The patient was a 3225 gm, full term person who had been treated with extracorporeal membrane oxygenation (ECMO) because of the severity of their congenital heart disease and profound hypoxemia. They had been taken off ECMO and was being maintained intubated and ventilated in the newborn intensive care unit. They subsequently became progressively hypoxemic, as reflected in their post-ductal pulse oximetry (POX) values. By the time they were taken to the catheterization laboratory to confirm the existence of the A-V canal and to determine if some emergent cardiac surgery was needed, they were receiving maximal medical and ventilatory life support and remained dangerously hypoxemic. Under these circumstances, we were granted consent to treat the patient with nitric oxide.
Upon arrival to the catheterization laboratory, the patient was extremely cyanotic. They were treated with fentanyl, oxygen, hyperventilation and intravenous fluid boluses to stabilize them prior to administering NO.
We utilized a regulator to step-down the pressure of the NO into a blender, which allowed us to adjust the relative amounts of the 800 ppm NO/N2 and 100% N2 supplies. Treating the patient with pure oxygen, we increased the flow of N2 through a flow regulator into the inspiratory circuit of the breathing cicuit until the FI O2 was 0.9. This provided a 1:10 dilution of the nitrogen gas. We then used the blender to adjust the relative amounts of N2 and […] to provide 0 to 80 ppm of NO.

[4] = tested on: primary pulmonary hypertension; conditions: cited from earlier work
[5] = hypoxia + 40-80 ppm NO, FiO2 0.06-0.08, n = 5, mean ± S.E.
[6] = hypoxia + 40-80 ppm NO, n = 5, mean ± S.E.
[7] = hypoxia + 40-80 ppm NO, n = 5, mean ± S.E., p < .01 vs hypoxia
[8] = NO 80 ppm, restarted after OFF #1

**Q.** Which “QVA /QT (right-to-left shunt)” value [1] does the source give for `[N]=O` [NO, nitric oxide] here?
**A.** reduces both pulmonary arterial pressure and QVA /QT

**Q.** And the blood oxygen levels [1]?
**A.** marked increase of the patients' blood oxygen levels

**Q.** What about the pulmonary arterial pressure [1] of the same molecule?
**A.** reduces both pulmonary arterial pressure and QVA /QT

**Q.** What about the “Pa O2 during hypoxia with vs without NO” value ([2]; 40 or 80 ppm NO) of the same molecule?
**A.** similar

**Q.** What about the “Pv O2 during hypoxia with vs without NO” value ([2]; 40 or 80 ppm NO) of the same molecule?
**A.** similar

**Q.** What about the “drop of mean PVR” value ([2]; 40 or 80 ppm NO) of the same molecule?
**A.** 33%

**Q.** What about the pulmonary artery pressure ([2]; 40 or 80 ppm NO) of the same molecule?
**A.** returned to control levels

**Q.** What about the “Pa CO2” value [2, 5] of the same molecule?
**A.** 40.0 ± 2.7 mm Hg

**Q.** What about the “PaO2” value [2, 5] of the same molecule?
**A.** 31.1 ± 1.7 mm Hg

**Q.** And the “Pv O2” value [2, 5]?
**A.** 19.8 ± 3.2 mm Hg

**Q.** What about the pHa [2, 5] of the same molecule?
**A.** 7.40 ± 0.03

**Q.** And the CO [2, 6]?
**A.** 7.56 ± 0.79 L/min

**Q.** What about the CVP [2, 6] of the same molecule?
**A.** 2.8 ± 1.6 mm Hg

**Q.** What about the LAP [2, 6] of the same molecule?
**A.** 4.2 ± 1.0 mm Hg

**Q.** And the SVR [2, 6]?
**A.** 13.7 ± 1.0 mm Hg/l/min

**Q.** And the PAP [2, 7]?
**A.** 18.7 ± 1.1 mm Hg

**Q.** What about the PVR [2, 7] of the same molecule?
**A.** 2.01 ± 0.35 mm Hg/l/min

**Q.** And the SAP [2, 7]?
**A.** 106 ± 5 mm Hg

**Q.** And the “arterial saturation, pulse oximetry values and arterial partial pressure of oxygen” value ([3]; NO 20-80 ppm)?
**A.** modest increase in arterial saturation, pulse oximetry values, and arterial partial pressure of oxygen

**Q.** What about the “effect on systemic blood pressure” value ([3]; NO 20-80 ppm) of the same molecule?
**A.** no adverse effect on systemic blood pressure

**Q.** And the “O2 SAT, PA” value ([3]; NO 20 ppm)?
**A.** 70%

**Q.** And the “O2 SAT, POX (pulse oximeter), postductal” value ([3]; NO 20 ppm)?
**A.** 91%

**Q.** What about the “O2 SAT, RA” value ([3]; NO 20 ppm) of the same molecule?
**A.** 67%

**Q.** What about the “O2 SAT, postductal ART” value ([3]; NO 20 ppm) of the same molecule?
**A.** 85%

**Q.** And the “mean pressure, ART” value ([3]; NO 20 ppm)?
**A.** 45 mmHg

**Q.** What about the “mean pressure, PA” value ([3]; NO 20 ppm) of the same molecule?
**A.** 50 mmHg

**Q.** And the “mean pressure, RA” value ([3]; NO 20 ppm)?
**A.** 5 mmHg

**Q.** And the “postductal arterial PO2, ART” value ([3]; NO 20 ppm)?
**A.** 46 mmHg

**Q.** And the “O2 SAT, PA” value ([3]; NO 40 ppm)?
**A.** 74%

**Q.** And the “O2 SAT, POX (pulse oximeter), postductal” value ([3]; NO 40 ppm)?
**A.** 93%

**Q.** What about the “O2 SAT, RA” value ([3]; NO 40 ppm) of the same molecule?
**A.** 72%

**Q.** And the “O2 SAT, postductal ART” value ([3]; NO 40 ppm)?
**A.** 74%

**Q.** And the “mean pressure, ART” value ([3]; NO 40 ppm)?
**A.** 43 mmHg

**Q.** What about the “mean pressure, PA” value ([3]; NO 40 ppm) of the same molecule?
**A.** 52 mmHg

**Q.** What about the “mean pressure, RA” value ([3]; NO 40 ppm) of the same molecule?
**A.** 4 mmHg

**Q.** And the “postductal arterial PO2, ART” value ([3]; NO 40 ppm)?
**A.** 50 mmHg

**Q.** And the “O2 SAT, PA” value ([3]; NO 80 ppm)?
**A.** 75%

**Q.** And the “O2 SAT, RA” value ([3]; NO 80 ppm)?
**A.** 74%

**Q.** What about the “mean pressure, ART” value ([3]; NO 80 ppm) of the same molecule?
**A.** 47 mmHg

**Q.** What about the “mean pressure, PA” value ([3]; NO 80 ppm) of the same molecule?
**A.** 53 mmHg

**Q.** And the “mean pressure, RA” value ([3]; NO 80 ppm)?
**A.** 5 mmHg

**Q.** What about the “O2 SAT, POX (pulse oximeter), postductal” value ([3]; NO 80 ppm, first) of the same molecule?
**A.** 94%

**Q.** And the “O2 SAT, postductal ART” value ([3]; NO 80 ppm, first)?
**A.** 88%

**Q.** And the “postductal arterial PO2, ART” value ([3]; NO 80 ppm, first)?
**A.** 51 mmHg

**Q.** What about the “O2 SAT, POX (pulse oximeter), postductal” value [3, 8] of the same molecule?
**A.** 90%

**Q.** And the “O2 SAT, postductal ART” value [3, 8]?
**A.** 85%

**Q.** And the “postductal arterial PO2, ART” value [3, 8]?
**A.** 48 mmHg

**Q.** What about the “arterial saturation and oxygen gas tension on discontinuation” value ([3]; after nitric oxide was discontinued) of the same molecule?
**A.** precipitously dropped

**Q.** And the “oxygen saturation and blood gas tension on restart” value ([3]; nitric oxide restarted)?
**A.** succeeded in improving the oxygen saturation and blood gas tension

**Q.** And the gas exchange ([3]; pulmonary hypertension and congenital heart disease)?
**A.** improving gas exchange

**Q.** What about the “oxygenation level on second weaning” value ([3]; subsequent attempt to wean off nitric oxide) of the same molecule?
**A.** deteriorated to dangerously low levels

**Q.** And the “PAP difference as percentage of ΔPAP” value ([4]; 40 ppm NO)?
**A.** about 6%

**Q.** What about the “difference in PAP versus air” value ([4]; 40 ppm NO) of the same molecule?
**A.** 2.9 mm Hg

**Q.** And the “average PAP” value ([4]; breathing 40 ppm NO, seven patients, 59.6 mm Hg breathing air)?
**A.** 56.7 mm Hg

**Q.** And the “average reduction in PVR” value ([4]; during inhalation of NO)?
**A.** 9%

**Q.** And the “decrease in SAP” value ([4]; during inhalation of NO)?
**A.** No corresponding decrease in SAP
